Results reported in patent US11820792B2, “Cancer treatment” (Imperial College Innovations Limited, priority 2017, dated 2023).

Assays:
[1] = tested on: UW228 cells; assay: TNFα and cisplatin combination, sulphorodamine B viability; type: cell-based, human; conditions: stably transduced UW228, 1 μM and 5 μM cisplatin
Experimental: Cell viability was measured at different time points using sulphorodamine B assay. Stably transduced UW228 were treated with 1 μM and 5 μM cisplatin chemotherapy 48 hrs after seeding the cells. Data are represented as mean±SEM.***P≤0.001.

[2] = tested on: DIPG; conditions: 2 children, both died after treatment; cited from earlier work
[3] = tested on: recurrent human malignant glioma; conditions: cited from earlier work
[4] = systemic administration, clinical trials; cited from earlier work

With N.N.[Cl][Pt][Cl] [cisplatin] the “effect of combination on tmTNFα cytokine gene therapy (cell viability)” value [1] was “increases”.

In the case of CC[C@@]1(O)C(=O)OCc2c1cc1n(c2=O)Cc2cc3c(CN(C)C)c(O)ccc3nc2-1 [topotecan], the tumour response [2] is given as “reduction in tumour size”.

For “IL-4: Interleukin-4 protein injected intratumorally by convection enhanced delivery”, the “neurotoxicity to normal brain” value ([3]; histology, any patient) is given as “No histological evidence of neurotoxicity”, the “patients showing glioma necrosis” value ([3]; intratumoral, CED) is given as “Six of nine” and the “disease free time after the procedure” value ([3]; one patient) is given as over 18 months. The systemic toxicity ([3]; treated patients) was “no drug-related systemic toxicity”.

For “rhIL-15: Recombinant human IL-15 cytokine given systemically in clinical trials”, the plasma half-life [4] is listed as under 1 h.
